In the OligoGym collection:
HELM strings list units from the 5' end as sugar, base in round brackets, then linkage (d deoxyribose, r ribose, m 2'-O-methyl, p phosphodiester). Strings are as the collection lists them; they lack the last nucleoside at the 3' end of the tested compound. [moe] = 2'-O-(2-methoxyethyl) (MOE); [sp] = phosphorothioate linkage; [m5C] = 5-methylcytosine

Target: ATXN2
Test: mouse, dose not given
Conditions: ASO

Substance	3 h FOB score [score 0-7]
RNA1{[moe]([m5C])[sp].[moe](T)p.[moe](A)p.[moe](T)p.[moe](T)[sp].d(T)[sp].d([m5C])[sp].d(T)[sp].d(T)[sp].d(T)[sp].d(G)[sp].d(T)[sp].d([m5C])[sp].[moe]([m5C])p.[moe](A)p.[moe](G)[sp].[moe](G)}$$$$ (last 3' nucleoside missing)	3.25
RNA1{[moe](G)[sp].[moe](T)p.[moe]([m5C])p.[moe](T)p.[moe](T)p.d(G)[sp].d(T)[sp].d(T)[sp].d([m5C])[sp].d(A)[sp].d(G)[sp].d(T)[sp].d(G)[sp].d(T)[sp].d([m5C])[sp].[moe]([m5C])p.[moe](T)p.[moe](T)[sp].[moe]([m5C])}$$$$ (last 3' nucleoside missing)	6
RNA1{[moe](G)[sp].[moe](G)p.[moe](T)p.[moe](G)p.[moe](G)p.d(T)[sp].d(G)[sp].d(T)[sp].d(G)[sp].d([m5C])[sp].d(G)[sp].d([m5C])[sp].d(A)[sp].d(T)[sp].d(G)[sp].[moe](T)p.[moe](A)p.[moe](G)[sp].[moe](A)}$$$$ (last 3' nucleoside missing)	7
RNA1{[moe](T)[sp].[moe](G)p.[moe](G)p.[moe](T)p.[moe](T)p.d([m5C])[sp].d([m5C])[sp].d(T)[sp].d(T)[sp].d(A)[sp].d([m5C])[sp].d(A)[sp].d(A)[sp].d(T)[sp].d(T)[sp].[moe](A)p.[moe](T)p.[moe]([m5C])[sp].[moe](T)}$$$$ (last 3' nucleoside missing)	0
RNA1{[moe](A)[sp].[moe](A)p.[moe](T)p.[moe](G)p.[moe]([m5C])p.d([m5C])[sp].d(G)[sp].d(T)[sp].d(T)[sp].d(T)[sp].d(T)[sp].d(T)[sp].d(A)[sp].d([m5C])[sp].d(T)[sp].[moe]([m5C])p.[moe](T)p.[moe]([m5C])[sp].[moe](A)}$$$$ (last 3' nucleoside missing)	0
RNA1{[moe]([m5C])[sp].[moe](T)p.[moe]([m5C])p.[moe]([m5C])p.[moe](T)[sp].d(A)[sp].d(T)[sp].d([m5C])[sp].d(A)[sp].d(T)[sp].d([m5C])[sp].d(A)[sp].d(T)[sp].[moe](T)p.[moe](T)p.[moe](T)[sp].[moe]([m5C])}$$$$ (last 3' nucleoside missing)	0
RNA1{[moe](T)[sp].[moe](T)p.[moe](A)p.[moe](G)p.[moe](A)[sp].d(G)[sp].d(T)[sp].d(T)[sp].d(T)[sp].d(T)[sp].d(T)[sp].d(G)[sp].d([m5C])[sp].[moe]([m5C])p.[moe](T)p.[moe](T)[sp].[moe]([m5C])}$$$$ (last 3' nucleoside missing)	5.5
RNA1{[moe]([m5C])[sp].[moe](T)p.[moe]([m5C])p.[moe](T)p.[moe]([m5C])p.d([m5C])[sp].d(A)[sp].d(T)[sp].d(T)[sp].d(A)[sp].d(T)[sp].d(T)[sp].d(T)[sp].d([m5C])[sp].d(T)[sp].[moe](T)p.[moe]([m5C])p.[moe](A)[sp].[moe]([m5C])}$$$$ (last 3' nucleoside missing)	4
RNA1{[moe](A)[sp].[moe](G)p.[moe](T)p.[moe]([m5C])p.[moe](A)p.d(T)[sp].d(G)[sp].d([m5C])[sp].d(T)[sp].d(T)[sp].d(A)[sp].d(T)[sp].d(A)[sp].d(A)[sp].d(A)[sp].[moe](G)p.[moe](T)p.[moe]([m5C])[sp].[moe]([m5C])}$$$$ (last 3' nucleoside missing)	3.5
RNA1{[moe](T)[sp].[moe](G)p.[moe](T)p.[moe]([m5C])p.[moe](A)p.d(T)[sp].d(A)[sp].d([m5C])[sp].d(T)[sp].d(G)[sp].d(T)[sp].d(A)[sp].d(T)[sp].d(T)[sp].d(G)[sp].[moe](T)p.[moe](T)p.[moe](T)[sp].[moe](T)}$$$$ (last 3' nucleoside missing)	5.25
RNA1{[moe]([m5C])[sp].[moe](T)p.[moe]([m5C])p.[moe](T)p.d([m5C])[sp].d([m5C])[sp].d(A)[sp].d(T)[sp].d(T)[sp].d(A)[sp].d(T)[sp].d(T)[sp].d(T)[sp].d([m5C])[sp].[moe](T)p.[moe](T)p.[moe]([m5C])p.[moe](A)[sp].[moe]([m5C])}$$$$ (last 3' nucleoside missing)	3
RNA1{[moe]([m5C])[sp].[moe]([m5C])p.[moe](T)p.[moe](A)p.d(T)[sp].d([m5C])[sp].d(A)[sp].d(T)[sp].d([m5C])[sp].d(A)[sp].d(T)[sp].d(T)[sp].d(T)[sp].d(T)[sp].[moe]([m5C])p.[moe]([m5C])p.[moe](A)p.[moe](G)[sp].[moe](G)}$$$$ (last 3' nucleoside missing)	1.75
RNA1{[moe](A)[sp].[moe]([m5C])p.[moe](A)p.[moe]([m5C])[sp].[moe](A)[sp].d(G)[sp].d(T)[sp].d(T)[sp].d(T)[sp].d([m5C])[sp].d(A)[sp].d([m5C])[sp].d(T)[sp].d(A)[sp].d(G)[sp].[moe](G)p.[moe](T)p.[moe](T)[sp].[moe]([m5C])}$$$$ (last 3' nucleoside missing)	2
RNA1{[moe](A)[sp].[moe](G)p.[moe]([m5C])p.[moe](T)p.d(T)[sp].d(A)[sp].d(G)[sp].d(A)[sp].d(G)[sp].d(T)[sp].d(T)[sp].d(T)[sp].d(T)[sp].d(T)[sp].[moe](G)p.[moe]([m5C])p.[moe]([m5C])p.[moe](T)[sp].[moe](T)}$$$$ (last 3' nucleoside missing)	4
RNA1{[moe](G)[sp].[moe](A)p.[moe](A)p.[moe](G)p.[moe](T)p.d([m5C])[sp].d(T)[sp].d(T)[sp].d(G)[sp].d(T)[sp].d(T)[sp].d([m5C])[sp].d(A)[sp].d(G)[sp].d(T)[sp].[moe](G)p.[moe](T)p.[moe]([m5C])[sp].[moe]([m5C])}$$$$ (last 3' nucleoside missing)	3.75
RNA1{[moe](A)[sp].[moe]([m5C])p.[moe](A)p.[moe]([m5C])p.[moe](A)[sp].d(G)[sp].d(T)[sp].d(T)[sp].d(T)[sp].d([m5C])[sp].d(A)[sp].d([m5C])[sp].d(T)[sp].d(A)[sp].d(G)[sp].[moe](G)p.[moe](T)p.[moe](T)[sp].[moe]([m5C])}$$$$ (last 3' nucleoside missing)	4.75
RNA1{[moe](G)[sp].[moe](A)p.[moe](G)p.[moe](T)p.[moe](T)p.d([m5C])[sp].d(A)[sp].d([m5C])[sp].d([m5C])[sp].d(T)[sp].d(G)[sp].d([m5C])[sp].d(A)[sp].d(T)[sp].d([m5C])[sp].[moe]([m5C])p.[moe]([m5C])p.[moe](A)[sp].[moe](G)}$$$$ (last 3' nucleoside missing)	6
RNA1{[moe](T)[sp].[moe](G)p.[moe]([m5C])p.[moe]([m5C])p.[moe](T)[sp].d([m5C])[sp].d(T)[sp].d(A)[sp].d([m5C])[sp].d(T)[sp].d([m5C])[sp].d(G)[sp].d(G)[sp].[moe](T)p.[moe]([m5C])p.[moe]([m5C])[sp].[moe](A)}$$$$ (last 3' nucleoside missing)	4
RNA1{[moe]([m5C])[sp].[moe](T)p.[moe](A)p.[moe](G)p.[moe](G)p.d(T)[sp].d(G)[sp].d(A)[sp].d(T)[sp].d(G)[sp].d(T)[sp].d(T)[sp].d(T)[sp].d([m5C])[sp].d(A)[sp].[moe](T)p.[moe](T)p.[moe](G)[sp].[moe](G)}$$$$ (last 3' nucleoside missing)	7
RNA1{[moe](T)[sp].[moe](G)p.[moe]([m5C])p.[moe](A)p.[moe](A)p.d([m5C])[sp].d(T)[sp].d(T)[sp].d(A)[sp].d(A)[sp].d(T)[sp].d(A)[sp].d(A)[sp].d([m5C])[sp].d([m5C])[sp].[moe](T)p.[moe](T)p.[moe](A)[sp].[moe](G)}$$$$ (last 3' nucleoside missing)	1.75
RNA1{[moe](A)[sp].[moe](A)p.[moe]([m5C])p.[moe]([m5C])p.[moe](A)p.d(T)[sp].d(G)[sp].d([m5C])[sp].d([m5C])[sp].d(T)[sp].d([m5C])[sp].d(T)[sp].d(T)[sp].d(T)[sp].d(T)[sp].[moe](T)p.[moe](T)p.[moe]([m5C])[sp].[moe](T)}$$$$ (last 3' nucleoside missing)	0
RNA1{[moe]([m5C])[sp].[moe](T)p.[moe](G)p.[moe](T)p.[moe](A)p.d([m5C])[sp].d(T)[sp].d(T)[sp].d(T)[sp].d(T)[sp].d([m5C])[sp].d(T)[sp].d([m5C])[sp].d(A)[sp].d(T)[sp].[moe](G)p.[moe](T)p.[moe](G)[sp].[moe]([m5C])}$$$$ (last 3' nucleoside missing)	1.25
RNA1{[moe](G)[sp].[moe](T)p.[moe](T)p.[moe](A)p.[moe]([m5C])p.d(T)[sp].d(G)[sp].d(T)[sp].d(T)[sp].d(T)[sp].d([m5C])[sp].d(G)[sp].d(A)[sp].d([m5C])[sp].d([m5C])[sp].[moe](T)p.[moe]([m5C])p.[moe](T)[sp].[moe](G)}$$$$ (last 3' nucleoside missing)	6.5
RNA1{[moe]([m5C])[sp].[moe]([m5C])[sp].[moe]([m5C])[sp].[moe](A)[sp].[moe](A)[sp].d(A)[sp].d(G)[sp].d(G)[sp].d(G)[sp].d(T)[sp].d(T)[sp].d(A)[sp].d(A)[sp].d(T)[sp].d(T)[sp].[moe](A)[sp].[moe](G)[sp].[moe](G)[sp].[moe](A)}$$$$ (last 3' nucleoside missing)	7
RNA1{[moe](T)[sp].[moe](T)p.[moe](G)p.[moe]([m5C])p.[moe](A)p.d([m5C])[sp].d(A)[sp].d(T)[sp].d(A)[sp].d(G)[sp].d(G)[sp].d(T)[sp].d(T)[sp].d(A)[sp].d(G)[sp].[moe](A)p.[moe](A)p.[moe](T)[sp].[moe](T)}$$$$ (last 3' nucleoside missing)	6.5
RNA1{[moe](T)[sp].[moe]([m5C])p.[moe](T)p.[moe]([m5C])p.[moe]([m5C])[sp].d(A)[sp].d(T)[sp].d(T)[sp].d(A)[sp].d(T)[sp].d(T)[sp].d(T)[sp].d([m5C])[sp].[moe](T)p.[moe](T)p.[moe]([m5C])[sp].[moe](A)}$$$$ (last 3' nucleoside missing)	1
